Source: patent US20020115728A1, “Compositions and methods for treating cardiovascular disorders” (priority 2000, published 2002)

Legend:
[1] = tested on: plasma lipoproteins of apoE−/− mice; assay: Lipids and antioxidants in lipoprotein fractions (size exclusion FPLC of pooled plasma); type: in vivo; design: VLDL C / VLDL C18:2 / VLDL -TOH / VLDL Total CoQ / LDL C / LDL C18:2 / LDL -TOH / LDL Total CoQ / HDL C / HDL C18:2 / HDL -TOH / HDL Total CoQ: unit not given here; settings: 24 weeks
Method: Plasma was obtained from control and probucol mice and aliquots frozen for subsequent determination of lipids. Separate aliquots were acidified with metaphosphoric acid (5%) to stabilize vitamin C prior to freezing and storage at −80° C. The remainder was pooled appropriately and used for ex vivo oxidation initiated by the peroxyl radical generator AAPH and lipoprotein separation by FPLC with UV280nm detection, as described in J Lipid Res. 1999;40:1104-1112.
Two consecutive separations each employing 300 μL undiluted plasma were carried out. The corresponding eluents from both injections were collected, pooled according to fractions corresponding to very low-density lipoprotein (VLDL), LDL, and HDL plus mouse serum albumin (see FIG. 3) and then extracted and analysed for lipids and antioxidants.

[2] = tested on: cholesterol-fed, ballooned New Zealand White rabbits; assay: Atherosclerosis/restenosis and lipid oxidation in cholesterol-fed, ballooned rabbits; type: in vivo; settings: 2% cholesterol diet with 1% probucol, 6 weeks
Method: Aortic endothelial denudation was performed at week 3 by withdrawing an inflated 3F Fogarty balloon embolectomy catheter three times down the length of the aorta. Plasma was obtained from animals as described in Example 1 at the start and end of the study. At the end of the study period, individual aortas were removed and prepared for HPLC analysis as in Example 1. Lipids and antioxidants including probucol and its metabolites, bisphenol and diphenoquinone, were analyzed by RP-HPLC as described previously. Aortas designated for histology were perfusion-fixed with 4% (v/v) formaldehyde and transferred into formalin. Cross-sections (2-3 μm thick) were prepared and stained with Weigert's hematoxylin-van Gieson, and the intima to media ratio determined for three sections.

[3] = tested on: apoE−/−;LDLr−/− mouse aortae; assay: Aqueous and lipophilic parameters of aortic homogenates; type: in vivo, mice; settings: for Aortic Ascorbate: apoE−/−;LDLr−/− mice
Method: Mouse aortas were excised as follows: after bleeding, the heart was perfused with Dulbecco's phosphate-buffered saline containing 100 μM BHT and 1 mM EDTA (maximum pressure 80 mm Hg) through the left ventricle, the right side chamber being opened to allow flow. For histological samples only, the vasculature was subsequently fixed with formal saline. The hearts and entire aortas from all treatment groups were removed and immediately cleaned of fat and connective tissue. Aortas for biochemical analyses were frozen immediately ([…]) without formalin fixation.
Cleaned aortic segments were thawed, blotted, pooled (n=7 or 8), weighed, added to 2 mL of argon-flushed phosphate-buffered saline (to give ˜40 mg wet tissue/mL) containing BHT (100 μM) and EDTA (1 mM). The tissue was minced with scissors, isoascorbate (5 μM) and α-tocotrienol (1 μM) added as internal standards for ascorbate and vitamin E (including α-TQ), respectively, and the samples transferred to a polytetrafluoroethylene-lined glass tube and homogenised at 4° C. for 5 minutes using a teflon piston rotating at 500 r.p.m. For recovery of oxidised lipids, [^3H]-Ch18:2-OH was incorporated into human LDL and added to the vessel prior to homogenisation. […] For ascorbate measurement, raw homogenate (50 μL) was added to metaphosphoric acid (5% v/v, 50 μL) and frozen on dry ice. Immediately before HPLC analysis, the aliquots were thawed and diluted with phosphate buffer (50 μL, 250 mM, pH 7.4), to adjust the pH. For the analyses of lipids, the remaining homogenate (˜1.8 mL) was divided into 4×450 μl aliquots and each extracted with chilled methanol (2 mL) and hexane (10 mL). Hexane phases were combined and evaporated to dryness and the residue resuspended in isopropanol (200 μL).
Analyses of oxidised and non-oxidised lipids were carried out by RP-HPLC as described in Example 1 except that in some instances UV234 nm rather than post-column chemiluminescence detection was used to measure C18:2-OOH and the corresponding hydroxides (together referred to as CE-O(O)H) which show similar retention times under these chromatographic conditions. α-TQ, α-TOH, α-tocotrienol, D-isosascorbate and ascorbate were determined by HPLC with electrochemical detection. For oxidation of plasma, unesterified cholesterol (which remained non-oxidised in these experiments) was employed as internal standard for all polyunsaturated, lipid-soluble components analysed. Bisphenol and diphenoquinone were analysed by RP-HPLC: flow 1.5 mL/min, 100% solvent A (MeCN/MeOH/H20 10:10:3, v/v/v) for 0-15 min monitored at 270 nm, followed by 50% solvent A and B (MeCN/MeOH 1:1, v/v) for 15-22 min at 242 nm and then 100% B for 22-28 min at 420 nm. Bisphenol and diphenoquinone eluted at 9 and 27 min, respectively. All compounds were quantified by peak area comparison with authentic standards. Where indicated, total cholesterol and triglyceride were assayed enzymatically (Boehringer, Mannheim, Germany).
Unless otherwise stated lipid and antioxidant levels are expressed as pmol/mg protein. LH, lipid containing bisallylic hydrogens. §Values are expressed as nmol/mg protein. Protein ranged from 2.4 - 3.3 mg/mL. ¶Value given represents ratio ×10^3. †Mice were ranked in order of plasma concentration of bisphenol, then corresponding aortae were pooled into groups of 7 and 8 on the basis of plasma drug-levels giving two distinct groups. Low and high bisphenol correspond to 106±40 and 212±50 μM, respectively. Control aortas were pooled randomly into two groups of 7 and 8 respectively.

[4] = tested on: tocopherol-mediated peroxidation (TMP); assay: Anti-TMP index; type: biochemical

Structure (SMILES): CC(C)(Sc1cc(C(C)(C)C)c(O)c(C(C)(C)C)c1)Sc1cc(C(C)(C)C)c(O)c(C(C)(C)C)c1 [Probucol, probucol]
- HDL -TOH ([1]; HDL fraction, 1% probucol): 1.4
- HDL C ([1]; HDL fraction, 1% probucol): 0.12
- HDL C18:2 ([1]; HDL fraction, 1% probucol): 531
- HDL C20:4 ([1]; HDL fraction, 1% probucol): 24.0
- HDL Total CoQ ([1]; HDL fraction, 1% probucol): 0.1
- LDL -TOH ([1]; LDL fraction, 1% probucol): 7.8
- LDL C ([1]; LDL fraction, 1% probucol): 0.96
- LDL C18:2 ([1]; LDL fraction, 1% probucol): 388
- LDL C20:4 ([1]; LDL fraction, 1% probucol): 50.4
- LDL Total CoQ ([1]; LDL fraction, 1% probucol): 0.4
- VLDL -TOH ([1]; VLDL fraction, 1% probucol): 0.56
- VLDL C18:2 ([1]; VLDL fraction, 1% probucol): 340
- VLDL C20:4 ([1]; VLDL fraction, 1% probucol): 17.5
- VLDL Total CoQ ([1]; VLDL fraction, 1% probucol): 0.1
- VLDL C ([1]; VLDL fraction, pooled plasma, 1% w/w probucol): 0.65
- content of C in VLDL, % of the control value ([1]; VLDL of pooled plasma, 1% probucol): 25%
- content of plasma and aortic lipids and absolute amounts of oxidized lipids [2]: significantly decreased
- proportion of aortic lipids that was oxidized [2]: not affected
- effect on atherosclerosis ([2]; aortic denudation at week 3): significantly decreased

Structure (SMILES): CC(C)(C)c1cc(-c2cc(C(C)(C)C)c(O)c(C(C)(C)C)c2)cc(C(C)(C)C)c1O [Bisphenol, bisphenol]
- Aortic C ([3]; Bisphenol [high]): 190 nmol/mg protein
- Aortic C18:2 ([3]; Bisphenol [high]): 13.3 nmol/mg protein
- Aortic C20:4 ([3]; Bisphenol [high]): 8.5 nmol/mg protein
- Aortic CE-O(O)H ([3]; Bisphenol [high]): 2.8 pmol/mg protein
- Aortic CE-O(O)H/LH ([3]; Bisphenol [high]): 0.002 ratio ×10^3
- Aortic α-TOH ([3]; Bisphenol [high]): 586 pmol/mg protein
- Aortic α-TQ ([3]; Bisphenol [high]): 3.5 pmol/mg protein
- Aortic Ascorbate ([3]; Bisphenol [high] (plasma 212±50 μM)): 2570 pmol/mg protein
- Aortic C ([3]; Bisphenol [low]): 204 nmol/mg protein
- Aortic C18:2 ([3]; Bisphenol [low]): 21.0 nmol/mg protein
- Aortic C20:4 ([3]; Bisphenol [low]): 12.7 nmol/mg protein
- Aortic CE-O(O)H ([3]; Bisphenol [low]): 14.1 pmol/mg protein
- Aortic CE-O(O)H/LH ([3]; Bisphenol [low]): 0.145 ratio ×10^3
- Aortic α-TOH ([3]; Bisphenol [low]): 669 pmol/mg protein
- Aortic α-TQ ([3]; Bisphenol [low]): 4.9 pmol/mg protein
- Aortic Ascorbate ([3]; Bisphenol [low] (plasma 106±40 μM)): 3204 pmol/mg protein
- level of aortic oxidised lipids lower than control ([3]; animals with high plasma levels of bisphenol): 1000 fold
- level of aortic oxidised lipids lower than control ([3]; animals with low plasma levels of bisphenol): 10 fold
- Anti-TMP index [4]: 3.2
